Laboratory results taken from patent publication US20220257491A1, “Prebiotic Oral Care Compositions and Methods” (Colgate-Palmolive Company, priority 2021, published 2022).

How the values were obtained:
Assay type in all cases: cell-based
V. parvula = test: Multi-species biofilm composition: absolute abundance of V. parvula; conditions: mean±SD n=3
Experimental: (§1) Biofilms are grown vertically on Calcium Deficient Hydroxyapatite (CAD-HA) disks (Hitemco Medical, Old Bethpage, USA) using the Amsterdam Active Adhesion model. Biofilms are allowed to establish during 24 h (37° C., 170 rpm) under micro-aerophilic conditions (6% O2, 7% CO2, 7% H2, 80% N2). After this 24 h, disks are rinsed 3 times a day for 3 minutes (RT, 250 rpm), for 3 consecutive days, by transferring the lid containing the disks to a new 24-well plate containing 2 mL/well of the appropriate substrate solution. As a negative control, PBS (pH 5.7) without substrate supplementation is used. After each rinsing step, disks are shortly dip-rinsed in a new 24-well plate containing fresh modified BHI medium (2 mL/well) to remove remaining substrate traces. Subsequently, the lid is transferred to another 24-well plate containing fresh modified BHI medium (2 mL/well), followed by incubation (micro-aerophilic, 37° C., 170 rpm) until the next rinsing step.
(§2) NADM, N-acetyl-D-glucosamine (“NADG”) and D-(+)-mannose are selected to determine their effects on multi-species biofilm composition. Repeated rinsing of the biofilms with the substrates at a concentration of 1M results in a significant decrease in absolute numbers in at least four of the pathogenic bacterial species tested in the assay, compared to the control, the results of which are described in Table 1 below. Absolute abundances of bacterial species are shown as mean±SD (n=3) logarithmic values of the genome equivalents per millilitre (log(Geq/mL)).

S. mitis = test: Multi-species biofilm composition: absolute abundance of S. mitis; conditions: mean±SD n=3
Experimental: as §1
(§3) NADM, N-acetyl-D-glucosamine (“NADG”) and D-(+)-mannose are selected to determine their effects on multi-species biofilm composition. […] decrease in absolute numbers in at least four of the pathogenic bacterial species tested in the assay, compared to the control, the results of which are described in Table 1 below. Absolute abundances of bacterial species are shown as mean±SD (n=3) logarithmic values of the genome equivalents per millilitre (log(Geq/mL)).

S. oralis = test: Multi-species biofilm composition: absolute abundance of S. oralis; conditions: mean±SD n=3
Experimental: as §1, §3

[1] = test system: F. nucleatum virulence genes; test: Multi-species biofilm virulence gene expression, SYBR RT-qPCR: F. nucleatum; conditions: for Fold Change in virulence gene expression: ABC transp. perm. / Fold Change in virulence gene expression: EF-G / Fold Change in virulence gene expression: but.-coA transf. / Fold Change in virulence gene expression: hemin receptor / Fold Change in virulence gene expression: hemolysin / Fold Change in virulence gene expression: ompA / Fold Change in virulence gene expression: transposase: relative to control (=1), 2^-ΔΔCt, geometric mean n=3
Experimental: as §1
(§4) The expression of 33 virulence genes from 4 periodontal pathogens is analysed to evaluate the relative virulence of the substrate-treated biofilms. For all three substrates, virulence gene expression is determined relatively to the control, and these values are also compared between substrates when this is relevant (Tables 5a-5d).

S. sobrinus = test: Multi-species biofilm composition: absolute abundance of S. sobrinus; conditions: mean±SD n=3
Experimental: as §1, §3

F. nucleatum = test: Multi-species biofilm composition: absolute abundance of F. nucleatum; conditions: for Absolute abundance Fn (F. nucleatum): mean±SD n=3
Experimental: as §1, §3

P. intermedia = test: Multi-species biofilm composition: absolute abundance of P. intermedia; conditions: mean±SD n=3
Experimental: as §1, §2

A. naeslundii = test: Multi-species biofilm composition: absolute abundance of A. naeslundii; conditions: mean±SD n=3
Experimental: as §1, §2

[2] = test system: P. intermedia virulence genes; test: Multi-species biofilm virulence gene expression, SYBR RT-qPCR: P. intermedia; conditions: for Fold Change in virulence gene expression: DnaJ / Fold Change in virulence gene expression: DnaK / Fold Change in virulence gene expression: ECF / Fold Change in virulence gene expression: GroES / Fold Change in virulence gene expression: HtpG / Fold Change in virulence gene expression: KpsD / Fold Change in virulence gene expression: adpc / Fold Change in virulence gene expression: clpB / Fold Change in virulence gene expression: inpA / Fold Change in virulence gene expression: phg: relative to control (=1), 2^-ΔΔCt, geometric mean n=3
Experimental: as §1, §4

multi-species biofilm = test: Relative multi-species biofilm composition (groups of bacterial species); conditions: for Relative abundance Beneficials/Commensals / Relative abundance Cariogenic Pathogens / Relative abundance Periodontal Pathogens / Relative abundance Beneficial or commensals: mean±SD n=3
Experimental: as §1, §3
Relative abundances of the different groups (beneficial/commensals, periodontal pathogens, cariogenic pathogens) of bacterial species are shown as mean±SD (n=3) percentage of the genome equivalents per millilitre (% (Geq/mL)). […] NADM: N-acetyl-D-mannosamine; NADG: N-acetyl-D-glucosamine.

S. mutans = test: Multi-species biofilm composition: absolute abundance of S. mutans; conditions: mean±SD n=3
Experimental: as §1, §2

A. actinomycetemcomitans = test: Multi-species biofilm composition: absolute abundance of A. actinomycetemcomitans; conditions: mean±SD n=3
Experimental: as §1, §3

[3] = test system: P. gingivalis virulence genes; test: Multi-species biofilm virulence gene expression, SYBR RT-qPCR: P. gingivalis; conditions: relative to control, 2^-ΔΔCt, geometric mean n=3
Experimental: as §1, §4

S. salivarius = test: Multi-species biofilm composition: absolute abundance of S. salivarius; conditions: mean±SD n=3
Experimental: as §1, §2

[4] = substrate 1%(w/v) in PBS, listed as D-(+)-mannose
[5] = substrate 1 M in PBS, listed as D-(+)-mannose

Structure (SMILES): O=C[C@@H](O)[C@@H](O)[C@H](O)[C@H](O)CO [D-mannose, D-(+)-mannose]
- Absolute abundance Vp (V. parvula) (V. parvula; substrate 1%(w/v) in PBS): 9.93 ± 0.20 log(Geq/mL)
- Absolute abundance Vp (V. parvula) (V. parvula; substrate 1 M in PBS): 10.18 ± 0.09 log(Geq/mL)
- Absolute abundance S. mitis (S. mitis; substrate 1%(w/v) in PBS): 3.00 ± 0.49 log(Geq/mL)
- Absolute abundance S. mitis (S. mitis; substrate 1 M in PBS): <LOD
- Absolute abundance S. oralis (S. oralis; substrate 1%(w/v) in PBS): 6.27 ± 0.21 log(Geq/mL)
- Absolute abundance S. oralis (S. oralis; substrate 1 M in PBS): 6.83 ± 0.09 log(Geq/mL)
- Fold Change in virulence gene expression: ABC transp. perm. ([1]; substrate 1%): 0.73 fold
- Fold Change in virulence gene expression: EF-G ([1]; substrate 1%): 0.13 fold
- Fold Change in virulence gene expression: but.-coA transf. ([1]; substrate 1%): 0.37 fold
- Fold Change in virulence gene expression: hemin receptor ([1]; substrate 1%): 0.26 fold
- Fold Change in virulence gene expression: hemolysin ([1]; substrate 1%): 0.89 fold
- Fold Change in virulence gene expression: ompA ([1]; substrate 1%): 1.17 fold
- Fold Change in virulence gene expression: transposase ([1]; substrate 1%): 1.38 fold
- F. nucleatum butyrate acetoacetate CoA transferase gene, upregulation ([1]; substrate 1 M): 2.3 fold
- F. nucleatum hemolysin gene, upregulation ([1]; substrate 1 M): 2.1 fold
- Fold Change in virulence gene expression: ABC transp. perm. ([1]; substrate 1M): 2.65 fold
- Fold Change in virulence gene expression: EF-G ([1]; substrate 1M): 1.36 fold
- Fold Change in virulence gene expression: but.-coA transf. ([1]; substrate 1M): 2.27 fold
- Fold Change in virulence gene expression: hemin receptor ([1]; substrate 1M): 3.82 fold
- Fold Change in virulence gene expression: hemolysin ([1]; substrate 1M): 2.14 fold
- Fold Change in virulence gene expression: ompA ([1]; substrate 1M): 1.36 fold
- Fold Change in virulence gene expression: transposase ([1]; substrate 1M): 1.46 fold
- Absolute abundance S. sobrinus (S. sobrinus; substrate 1%(w/v) in PBS): 5.28 ± 0.44 log(Geq/mL)
- Absolute abundance S. sobrinus (S. sobrinus; substrate 1 M in PBS): 5.44 ± 0.31 log(Geq/mL)
- Decrease in F. nucleatum vs control (F. nucleatum; substrate 1%(w/v)): 1.1 log(Geq/mL)
- Absolute abundance Fn (F. nucleatum) (F. nucleatum; substrate 1%(w/v) in PBS): 8.66 ± 0.29 log(Geq/mL)
- Absolute abundance Fn (F. nucleatum) (F. nucleatum; substrate 1 M in PBS): 6.59 ± 0.36 log(Geq/mL)
- Absolute abundance Pi (P. intermedia) (P. intermedia; substrate 1%(w/v) in PBS): 8.06 ± 0.19 log(Geq/mL)
- Absolute abundance Pi (P. intermedia) (P. intermedia; substrate 1 M in PBS): 7.80 ± 0.57 log(Geq/mL)
- Absolute abundance An (A. naeslundii) (A. naeslundii; substrate 1%(w/v) in PBS): 7.59 ± 0.05 log(Geq/mL)
- Absolute abundance An (A. naeslundii) (A. naeslundii; substrate 1 M in PBS): 5.54 ± 0.24 log(Geq/mL)
- Relative P. intermedia virulence gene expression, downregulation ([2]; substrate 1%(w/v), D-(+)-mannose for 3 genes): 2- to 2.7 fold
- Fold Change in virulence gene expression: DnaJ ([2]; substrate 1%): 0.37 fold
- Fold Change in virulence gene expression: DnaK ([2]; substrate 1%): 0.63 fold
- Fold Change in virulence gene expression: ECF ([2]; substrate 1%): 0.6 fold
- Fold Change in virulence gene expression: GroES ([2]; substrate 1%): 0.51 fold
- Fold Change in virulence gene expression: HtpG ([2]; substrate 1%): 0.46 fold
- Fold Change in virulence gene expression: KpsD ([2]; substrate 1%): 0.96 fold
- Fold Change in virulence gene expression: adpc ([2]; substrate 1%): 0.54 fold
- Fold Change in virulence gene expression: clpB ([2]; substrate 1%): 1.00 fold
- Fold Change in virulence gene expression: inpA ([2]; substrate 1%): 0.37 fold
- Fold Change in virulence gene expression: phg ([2]; substrate 1%): 0.50 fold
- Fold Change in virulence gene expression: DnaJ ([2]; substrate 1M): 0.03 fold
- Fold Change in virulence gene expression: DnaK ([2]; substrate 1M): 0.44 fold
- Fold Change in virulence gene expression: ECF ([2]; substrate 1M): 1.47 fold
- Fold Change in virulence gene expression: GroES ([2]; substrate 1M): 0.37 fold
- Fold Change in virulence gene expression: HtpG ([2]; substrate 1M): 0.29 fold
- Fold Change in virulence gene expression: KpsD ([2]; substrate 1M): 0.42 fold
- Fold Change in virulence gene expression: adpc ([2]; substrate 1M): 0.27 fold
- Fold Change in virulence gene expression: clpB ([2]; substrate 1M): 0.14 fold
- Fold Change in virulence gene expression: inpA ([2]; substrate 1M): 0.47 fold
- Fold Change in virulence gene expression: phg ([2]; substrate 1M): 0.10 fold
- Relative abundance Beneficials/Commensals (multi-species biofilm; substrate 1%(w/v) in PBS): 84.18 ± 2.04 % (Geq/mL)
- Relative abundance Cariogenic Pathogens (multi-species biofilm; substrate 1%(w/v) in PBS): 0.21 ± 0.04 % (Geq/mL)
- Relative abundance Periodontal Pathogens (multi-species biofilm; substrate 1%(w/v) in PBS): 15.61 ± 2.00 % (Geq/mL)
- Relative abundance Beneficials/Commensals (multi-species biofilm; [4]): 84.18±2.04 % (Geq/mL)
- Relative abundance Periodontal Pathogens (multi-species biofilm; [4]): 15.61±2.00 % (Geq/mL)
- Relative abundance Beneficial or commensals (multi-species biofilm; substrate 1 M in PBS): 96.83 ± 0.62 % (Geq/mL)
- Relative abundance Cariogenic Pathogens (multi-species biofilm; substrate 1 M in PBS): 2.40 ± 0.85 % (Geq/mL)
- Relative abundance Periodontal Pathogens (multi-species biofilm; substrate 1 M in PBS): 0.77 ± 0.82 *^, #1 % (Geq/mL)
- Relative abundance Beneficial or commensals (multi-species biofilm; [5]): 96.83±0.62 % (Geq/mL)
- Relative abundance Periodontal Pathogens (multi-species biofilm; [5]): 0.77±0.82 % (Geq/mL)
- Reduction of A. actinomycetemcomitans, F. nucleatum, P. gingivalis, A. naeslundii and A. viscosus numbers vs control (multi-species biofilm; substrate 1 M, range over the species): −1.2 to −3.7 log(Geq/mL)
- Absolute abundance S. mutans (S. mutans; substrate 1%(w/v) in PBS): 7.34 ± 0.12 log(Geq/mL)
- Absolute abundance S. mutans (S. mutans; substrate 1 M in PBS): 8.60 ± 0.09 log(Geq/mL)
- Absolute abundance Aa (A. actinomycetemcomitans) (A. actinomycetemcomitans; substrate 1%(w/v) in PBS): 9.02 ± 0.11 log(Geq/mL)
- Absolute abundance Aa (A. actinomycetemcomitans) (A. actinomycetemcomitans; substrate 1 M in PBS): 6.07 ± 0.47 log(Geq/mL)
- Fold Change in virulence gene expression: fimA ([3]; substrate 1%): 2.50 fold
- Fold Change in virulence gene expression: kgp ([3]; substrate 1%): 3.07 fold
- Fold Change in virulence gene expression: partC ([3]; substrate 1%): 0.60 fold
- Fold Change in virulence gene expression: rgpA ([3]; substrate 1%): 1.85 fold
- Fold Change in virulence gene expression: fimA ([3]; substrate 1M): 1.17 fold
- Fold Change in virulence gene expression: kgp ([3]; substrate 1M): 0.44 fold
- Fold Change in virulence gene expression: partC ([3]; substrate 1M): 0.09 fold
- Fold Change in virulence gene expression: rgpA ([3]; substrate 1M): 0.18 fold
- Absolute abundance S. sal. (S. salivarius) (S. salivarius; substrate 1%(w/v) in PBS): 2.89 ± 0.35 log(Geq/mL)
- Absolute abundance S. sal. (S. salivarius) (S. salivarius; substrate 1 M in PBS): 3.63 ± 0.90 log(Geq/mL)
